Measured values reported in patent US8202902B2, “Bivalent SMAC mimetics and the uses thereof” (The Regents of the University of Michigan, priority 2006, dated 2012).

How the values were obtained:
SK-OV-3 = experiment: Cell growth inhibition, WST assay, SK-OV-3; assay type: cell-based; conditions: Homo sapiens
Method: Cells were seeded in 96-well flat bottom cell culture plates at a density of 3000 cells/well with a tested compound and incubated at 37° C. in an atmosphere of 95% air and 5% CO2 for 4 days. The rate of cell growth inhibition after treatment with different concentrations of the compound was determined using a WST-8 kit (2-(2-methoxy-4-nitrophenyl)-3-(4-nitrophenyl)-5-(2, 4 disulfophenyl)-2H-tetrazolium monosodium salt; Dojindo Molecular Technologies, Inc., Gaithersburg, Md.). WST-8 was added at a final concentration of 10% to each well, and then the plates were incubated at 37° C. for 2-3 hrs. The absorbance of the samples was measured at 450 nm using a ULTRA Tecan Reader (Molecular Device).

[1] = target: T1, Recombinant XIAP containing linker-BIR2-BIR3 (residues 120-356) (Homo sapiens, UniProt P98170); experiment: Cell-free functional assay: antagonism of XIAP inhibition of caspase-3/-7; assay type: biochemical
T1 construct: Recombinant XIAP containing linker-BIR2-BIR3 (residues 120-356)

[2] = test system: MDA-MB-231 breast cancer cell line; experiment: Apoptosis assay (Annexin V/P.I.), MDA-MB-231; assay type: cell-based, human; conditions: 1 nM for 12 h
Method: Analysis of apoptosis was performed using an apoptosis detection kit (BioVision Research Products, Mountain View, Calif.) according to the manufacturer's protocol. Briefly, cells were treated with Smac mimetics for 12 hours, harvested and washed with ice-cold PBS. Cells were stained with Annexin V-FITC and Propidium iodide (P.I.) for 15 minutes at room temperature in the dark and immediately analyzed by FACS calibur flow cytometer (Becton Dickinson, Erembodegem, Belgium). Cells that were stained Annexin V (+) and P.I. (−) were considered early-stage apoptotic cells. Cells that were stained annexin V (+) and P.I. (+) were considered late-stage apoptotic cells and cells that were stained annexin V (−) and P.I. (+) were considered necrotic cells (FIG. 6).
Treatment with SM-164 at 1 nM for 12 h induced 32%, 33%, and 37% of the MDA-MB-231, SK-OV-3 and MALME-3M cells to undergo apoptosis, respectively (FIGS. 12-14).

OVCAR-4 cells = experiment: Trypan blue cell viability assay, OVCAR-4; assay type: cell-based; conditions: 100 nM, 2 days
Method: 0.3×10^6 cells were seeded in 6 well plates and incubated at 37° C. in an atmosphere of 95% air and 5% CO2 without or with tested compound for 2 days. A 1:1 dilution of 0.4% Trypan blue (Invitrogen Corporation) was used to determine cell viability.

T1 sequence (P98170 120-356): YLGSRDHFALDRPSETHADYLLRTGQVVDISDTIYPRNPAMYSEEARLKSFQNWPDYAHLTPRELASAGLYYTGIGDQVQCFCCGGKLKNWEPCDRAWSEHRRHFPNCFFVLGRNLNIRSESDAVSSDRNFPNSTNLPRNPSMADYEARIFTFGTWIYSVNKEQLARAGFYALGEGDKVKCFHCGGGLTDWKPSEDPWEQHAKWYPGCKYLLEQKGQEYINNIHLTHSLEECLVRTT

CN[C@@H](C)C(=O)N[C@H]1CCCC[C@H]2CC[C@@H](C(=O)N[C@@H](c3ccccc3)c3cn(CCCCc4ccc(CCCCn5cc([C@@H](NC(=O)[C@@H]6CC[C@@H]7CCCC[C@H](NC(=O)[C@H](C)NC)C(=O)N76)c6ccccc6)nn5)cc4)nn3)N2C1=O [SH-164]
IC50 (SK-OV-3): < 10 nM
more potent than SM-122 in antagonizing XIAP and promoting caspase activity [1]: 60 times
cells undergoing apoptosis [2]: 32%
cell death (OVCAR-4 cells): at least 70%
